Experimental data taken from ChEMBL document CHEMBL1201862, “PubChem BioAssay data set” (2004).
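Five compound concentrations were applied to cells in 96-well plates for 48 hours; endpoints were derived by simple linear interpolation of the resulting dose-response curve. At the GI50, growth is halved.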 Active and inactive are the calls of the source. Rule as the data show it: active = GI50 up to about 1.1 µM and inactive = higher. Residues, ends and D or L forms follow the SMILES beside them.

Assays:
Assay in all cases: DTP human tumour cell line panel, 48 h
786-0 = system: 786-0
A498 = system: A498
A549 = system: A549
ACHN = system: ACHN
BT-549 = system: BT-549
CAKI-1 = system: CAKI-1
CCRF-CEM = system: CCRF-CEM
COLO 205 = system: COLO 205
DU-145 = system: DU-145
EKVX = system: EKVX
HCT-116 = system: HCT-116
HCT-15 = system: HCT-15
HL-60 = system: HL-60
HOP-62 = system: HOP-62
HOP-92 = system: HOP-92
HT-29 = system: HT-29
Hs-578T = system: Hs-578T
IGROV-1 = system: IGROV-1
K562 = system: K562
KM12 = system: KM12
LOX IMVI = system: LOX IMVI
M14 = system: M14
MCF7 = system: MCF7
MDA-MB-231 = system: MDA-MB-231
MDA-MB-435 = system: MDA-MB-435
MDA-N = system: MDA-N
MOLT-4 = system: MOLT-4
Malme-3M = system: Malme-3M
NCI-H226 = system: NCI-H226
NCI-H23 = system: NCI-H23
NCI-H522 = system: NCI-H522
NCI/ADR-RES = system: NCI/ADR-RES
OVCAR-3 = system: OVCAR-3
OVCAR-4 = system: OVCAR-4
OVCAR-5 = system: OVCAR-5
OVCAR-8 = system: OVCAR-8
PC-3 = system: PC-3
RPMI-8226 = system: RPMI-8226
SF-268 = system: SF-268
SF-295 = system: SF-295
SF-539 = system: SF-539
SK-MEL-28 = system: SK-MEL-28
SK-MEL-2 = system: SK-MEL-2
SK-MEL-5 = system: SK-MEL-5
SK-OV-3 = system: SK-OV-3
SN12C = system: SN12C
SNB-19 = system: SNB-19
SR = system: SR
SW-620 = system: SW-620
T47D = system: T47D
TK-10 = system: TK-10
U-251 = system: U-251
UACC-257 = system: UACC-257
UACC-62 = system: UACC-62
UO-31 = system: UO-31
HCC 2998 = system: HCC 2998
NCI-H460 = system: NCI-H460
RXF 393 = system: RXF 393
SNB-75 = system: SNB-75

CCC(C)C(NC(=O)C(CC(C)C)NC(=O)CNC(=O)C(NC(=O)C1CCCN1C(=O)C(CC(C)C)NC(=O)C(N)Cc1ccccc1)C(C)CC)C(=O)NC(CC(C)C)C(N)=O (stereo not given) (H-FLPIGLIL-NH2; configuration not given here)
GI50 (786-0): > 75 µM (inactive)
GI50 (A498): > 75 µM (inactive)
GI50 (A549): > 75 µM (inactive)
GI50 (ACHN): > 75 µM (inactive)
GI50 (BT-549): > 75 µM (inactive)
GI50 (CAKI-1): > 75 µM (inactive)
GI50 (CCRF-CEM): > 75 µM (inactive)
GI50 (COLO 205): > 75 µM (inactive)
GI50 (DU-145): > 75 µM (inactive)
GI50 (EKVX): > 75 µM (inactive)
GI50 (HCT-116): > 75 µM (inactive)
GI50 (HCT-15): > 75 µM
GI50 (HL-60): > 75 µM (inactive)
GI50 (HOP-62): > 75 µM (inactive)
GI50 (HOP-92): > 75 µM (inactive)
GI50 (HT-29): > 75 µM (inactive)
GI50 (Hs-578T): > 75 µM (inactive)
GI50 (IGROV-1): > 75 µM (inactive)
GI50 (K562): > 75 µM (inactive)
GI50 (KM12): > 75 µM (inactive)
GI50 (LOX IMVI): > 75 µM (inactive)
GI50 (M14): > 75 µM (inactive)
GI50 (MCF7): > 75 µM (inactive)
GI50 (MDA-MB-231): > 75 µM (inactive)
GI50 (MDA-MB-435): > 75 µM (inactive)
GI50 (MDA-N): > 75 µM (inactive)
GI50 (MOLT-4): > 75 µM (inactive)
GI50 (Malme-3M): > 75 µM (inactive)
GI50 (NCI-H226): > 75 µM (inactive)
GI50 (NCI-H23): > 75 µM (inactive)
GI50 (NCI-H522): > 75 µM (inactive)
GI50 (NCI/ADR-RES): > 75 µM (inactive)
GI50 (OVCAR-3): > 75 µM (inactive)
GI50 (OVCAR-4): > 75 µM (inactive)
GI50 (OVCAR-5): > 75 µM (inactive)
GI50 (OVCAR-8): > 75 µM (inactive)
GI50 (PC-3): > 75 µM (inactive)
GI50 (RPMI-8226): > 75 µM (inactive)
GI50 (SF-268): > 75 µM (inactive)
GI50 (SF-295): > 75 µM (inactive)
GI50 (SF-539): > 75 µM (inactive)
GI50 (SK-MEL-28): > 75 µM (inactive)
GI50 (SK-MEL-2): > 75 µM (inactive)
GI50 (SK-MEL-5): > 75 µM (inactive)
GI50 (SK-OV-3): > 75 µM (inactive)
GI50 (SN12C): > 75 µM (inactive)
GI50 (SNB-19): > 75 µM (inactive)
GI50 (SR): > 75 µM (inactive)
GI50 (SW-620): > 75 µM (inactive)
GI50 (T47D): > 75 µM (inactive)
GI50 (TK-10): > 75 µM (inactive)
GI50 (U-251): > 75 µM (inactive)
GI50 (UACC-257): > 75 µM (inactive)
GI50 (UACC-62): > 75 µM (inactive)
GI50 (UO-31): > 75 µM (inactive)

CC1=CC[C@H](C[C@H](C#CCCCC2OCCO2)O[Si](C(C)C)(C(C)C)C(C)C)C(=O)CC1
GI50 (786-0): > 100 µM (inactive)
GI50 (A498): > 100 µM (inactive)
GI50 (A549): > 100 µM (inactive)
GI50 (ACHN): > 100 µM (inactive)
GI50 (BT-549): > 100 µM (inactive)
GI50 (CAKI-1): > 100 µM (inactive)
GI50 (CCRF-CEM): > 100 µM (inactive)
GI50 (COLO 205): > 100 µM (inactive)
GI50 (DU-145): > 100 µM (inactive)
GI50 (EKVX): > 100 µM (inactive)
GI50 (HCC 2998): > 100 µM (inactive)
GI50 (HCT-116): > 100 µM (inactive)
GI50 (HCT-15): > 100 µM
GI50 (HOP-62): > 100 µM (inactive)
GI50 (HOP-92): > 100 µM (inactive)
GI50 (HT-29): > 100 µM (inactive)
GI50 (Hs-578T): > 100 µM (inactive)
GI50 (IGROV-1): > 100 µM (inactive)
GI50 (K562): > 100 µM (inactive)
GI50 (KM12): > 100 µM (inactive)
GI50 (LOX IMVI): > 100 µM (inactive)
GI50 (M14): > 100 µM (inactive)
GI50 (MCF7): > 100 µM (inactive)
GI50 (MDA-MB-231): > 100 µM (inactive)
GI50 (MDA-MB-435): > 100 µM (inactive)
GI50 (MDA-N): > 100 µM (inactive)
GI50 (MOLT-4): > 100 µM (inactive)
GI50 (Malme-3M): > 100 µM (inactive)
GI50 (NCI-H226): > 100 µM (inactive)
GI50 (NCI-H23): > 100 µM (inactive)
GI50 (NCI-H460): > 100 µM (inactive)
GI50 (NCI/ADR-RES): > 100 µM (inactive)
GI50 (OVCAR-3): > 100 µM (inactive)
GI50 (OVCAR-4): > 100 µM (inactive)
GI50 (OVCAR-5): > 100 µM (inactive)
GI50 (OVCAR-8): > 100 µM (inactive)
GI50 (PC-3): > 100 µM (inactive)
GI50 (RPMI-8226): > 100 µM (inactive)
GI50 (RXF 393): > 100 µM (inactive)
GI50 (SF-268): > 100 µM (inactive)
GI50 (SF-295): > 100 µM (inactive)
GI50 (SK-MEL-28): > 100 µM (inactive)
GI50 (SK-MEL-2): > 100 µM (inactive)
GI50 (SK-MEL-5): > 100 µM (inactive)
GI50 (SK-OV-3): > 100 µM (inactive)
GI50 (SN12C): > 100 µM (inactive)
GI50 (SNB-19): > 100 µM (inactive)
GI50 (SNB-75): > 100 µM (inactive)
GI50 (SR): > 100 µM (inactive)
GI50 (SW-620): > 100 µM (inactive)
GI50 (T47D): > 100 µM (inactive)
GI50 (TK-10): > 100 µM (inactive)
GI50 (U-251): > 100 µM (inactive)
GI50 (UACC-257): > 100 µM (inactive)
GI50 (UACC-62): > 100 µM (inactive)
GI50 (UO-31): > 100 µM (inactive)

CC(=O)Nc1ncc(Sc2ccccc2C(=O)O)s1
GI50 (786-0): > 100 µM (inactive)
GI50 (A498): > 100 µM (inactive)
GI50 (A549): > 100 µM (inactive)
GI50 (ACHN): > 100 µM (inactive)
GI50 (BT-549): > 100 µM (inactive)
GI50 (CAKI-1): > 100 µM (inactive)
GI50 (CCRF-CEM): > 100 µM (inactive)
GI50 (COLO 205): > 100 µM (inactive)
GI50 (DU-145): > 100 µM (inactive)
GI50 (EKVX): > 100 µM (inactive)
GI50 (HCT-116): > 100 µM (inactive)
GI50 (HCT-15): > 100 µM
GI50 (HL-60): > 100 µM (inactive)
GI50 (HOP-62): > 100 µM (inactive)
GI50 (HOP-92): > 100 µM (inactive)
GI50 (HT-29): > 100 µM (inactive)
GI50 (Hs-578T): > 100 µM (inactive)
GI50 (IGROV-1): > 100 µM (inactive)
GI50 (K562): > 100 µM (inactive)
GI50 (KM12): > 100 µM (inactive)
GI50 (LOX IMVI): > 100 µM (inactive)
GI50 (M14): > 100 µM (inactive)
GI50 (MCF7): > 100 µM (inactive)
GI50 (MDA-MB-231): > 100 µM (inactive)
GI50 (MDA-MB-435): > 100 µM (inactive)
GI50 (MDA-N): > 100 µM (inactive)
GI50 (MOLT-4): > 100 µM (inactive)
GI50 (NCI-H226): > 100 µM (inactive)
GI50 (NCI-H23): > 100 µM (inactive)
GI50 (NCI-H460): > 100 µM (inactive)
GI50 (NCI/ADR-RES): > 100 µM (inactive)
GI50 (OVCAR-3): > 100 µM (inactive)
GI50 (OVCAR-5): > 100 µM (inactive)
GI50 (OVCAR-8): > 100 µM (inactive)
GI50 (PC-3): > 100 µM (inactive)
GI50 (RPMI-8226): > 100 µM (inactive)
GI50 (RXF 393): > 100 µM (inactive)
GI50 (SF-268): > 100 µM (inactive)
GI50 (SF-295): > 100 µM (inactive)
GI50 (SF-539): > 100 µM (inactive)
GI50 (SK-MEL-28): > 100 µM (inactive)
GI50 (SK-MEL-2): > 100 µM (inactive)
GI50 (SK-MEL-5): > 100 µM (inactive)
GI50 (SN12C): > 100 µM (inactive)
GI50 (SNB-19): > 100 µM (inactive)
GI50 (SNB-75): > 100 µM (inactive)
GI50 (SR): > 100 µM (inactive)
GI50 (SW-620): > 100 µM (inactive)
GI50 (T47D): > 100 µM (inactive)
GI50 (TK-10): > 100 µM (inactive)
GI50 (U-251): > 100 µM (inactive)
GI50 (UACC-257): > 100 µM (inactive)
GI50 (UACC-62): > 100 µM (inactive)
GI50 (UO-31): > 100 µM (inactive)
